Data from patent US20260109693A1, “BUTENOLIDE COMPOUNDS CONTAINING THIAZOLIDINONE STRUCTURE AS WELL AS PREPARATION METHOD THEREFOR AND USE THEREOF” (priority 2023, published 2026).
≈ marks a conversion by molar mass, not a printed value.

Assays:
[1] = tested on: Pathogenic fungi of rice sheath blight; assay: In vitro fungicidal activity, mycelial growth rate method; assay type: cell-based; conditions: 50 mg/L, PDA plate
[2] = tested on: Pathogenic fungi of pepper phytophthora disease; assay: as above; assay type: cell-based; conditions: 50 mg/L, PDA plate; for inhibition at 50 µg/mL: Phytophthora
[3] = tested on: Pathogenic fungi of wheat scab; assay: whole plant or invertebrate; assay type: cell-based; conditions: for inhibition rate, Pathogenic fungi of wheat scab: 50 mg/L, PDA plate, mycelial growth; for inhibition at 50 µg/mL: read-out: inhibition rate, Pathogenic fungi of wheat scab
[4] = tested on: Pathogenic fungi of rice bakanae disease; assay: In vitro fungicidal activity, mycelial growth rate method; assay type: cell-based; conditions: 50 mg/L, PDA plate
[5] = tested on: Pathogenic fungi of rape sclerotinia; assay: as above; assay type: cell-based; conditions: 50 mg/L, PDA plate; for inhibition at 50 µg/mL: Sclerotinia
[6] = tested on: Pathogenic fungi of tomato gray mold; assay: as above; assay type: cell-based; conditions: 50 mg/L, PDA plate
[7] = tested on: Wheat scab pathogenic fungi; assay type: cell-based
[8] = tested on: Rice bakanae pathogenic fungi; assay: Precise toxicity testing, five concentration gradients of toxic PDA plates; assay type: cell-based
[9] = tested on: Rape sclerotinia pathogenic fungi; assay: as above; assay type: cell-based
[10] = tested on: corn rust disease; assay: In vivo protective activity, live pot cultivation method; conditions: 400 mg/L, sprayed 24 hours before inoculation, potted plants
Experimental: (§1) The determination method was as follows: the live pot cultivation determination method was used, that is, the compound sample to be tested was dissolved in a small amount of solvent (the type of solvent was such as acetone, methanol, and DMF, and was selected according to its dissolving ability for the sample, with a volume ratio of solvent amount to spray amount equal to or less than 0.05), diluted with water containing 0.1% Tween 80, and prepared into a test solution with a required concentration. With a crop sprayer, the test solution was sprayed on a pathogen host plant (the host plant was a standard potted seedling cultivated in a greenhouse), and inoculation with the pathogen was performed after 24 hours. Based on the characteristics of the pathogen, plants that require temperature control and moisturizing cultivation were inoculated and placed in an artificial climate chamber for cultivation, and transferred to a greenhouse for cultivation after the pathogen infection was completed. […] The disease prevention efficacy of the compound was evaluated after the disease had fully developed (usually one week).
(§2) At a concentration of 400 mg/L, the in vivo protective activity determination results of some compounds are as follows: […]

[11] = tested on: wheat powdery mildew; assay: as above; conditions: 400 mg/L, sprayed 24 hours before inoculation, potted plants
Experimental: as §1, §2

[12] = tested on: cucumber downy mildew; assay: as above; conditions: 400 mg/L, sprayed 24 hours before inoculation, potted plants
Experimental: as §1, §2

## 5-(4-methyl-2-oxo-1-oxaspiro[4,5]-dec-3-en-3-ethylidene)-2-thio-4-thiazolidinone [Compound 3-1]
[1]
  inhibition rate, Pathogenic fungi of rice sheath blight: 45.2 ± 2.1%
[2]
  inhibition rate, Pathogenic fungi of pepper phytophthora disease: 59.7 ± 0.4%
[3]
  inhibition rate, Pathogenic fungi of wheat scab: 100.0 ± 0.0%
[4]
  inhibition rate, Pathogenic fungi of rice bakanae disease: 100.0 ± 0.0%
[5]
  inhibition rate, Pathogenic fungi of rape sclerotinia: 82.4 ± 1.7%
[6]
  inhibition rate, Pathogenic fungi of tomato gray mold: 62.4 ± 2.5%
[7]
  EC50: 0.079 mg/L
  EC90: 4.97 mg/L
[8]
  EC50: 0.72 mg/L
  EC90: 5.04 mg/L
[9]; Rape sclerotinia
  EC50: 2.02 mg/L
  EC90: 9.81 mg/L

## 5-(4-phenyl-2-oxo-1-oxaspiro[4,5]-dec-3-en-3-ethylidene)-2-thio-4-thiazolidinone [Compound 3-4]
[1]
  inhibition rate, Pathogenic fungi of rice sheath blight: 31.9 ± 5.6%
[2]
  inhibition rate, Pathogenic fungi of pepper phytophthora disease: 44.8 ± 0.3%
[3]
  inhibition rate, Pathogenic fungi of wheat scab: 27.7 ± 2.9%
[4]
  inhibition rate, Pathogenic fungi of rice bakanae disease: 15.8 ± 2.4%
[5]
  inhibition rate, Pathogenic fungi of rape sclerotinia: 68.3 ± 4.2%
[6]
  inhibition rate, Pathogenic fungi of tomato gray mold: 33.6 ± 1.7%

## COC(=O)Nc1nc2ccccc2[nH]1 [Carbendazim]
[1]
  inhibition at 50 µg/mL: 100%
[2]
  inhibition at 50 µg/mL: 4.6 ± 1.2%
[3]
  inhibition at 50 µg/mL: 100%
[4]
  inhibition at 50 µg/mL: 87.5 ± 3.1%
[5]
  inhibition at 50 µg/mL: 72.5 ± 2.1%
[6]
  inhibition at 50 µg/mL: 5.4 ± 2.4%

## CCCCNC1=NC(=O)C(=C(C)C2=C(c3ccccc3)C(C)(C)OC2=O)S1 [Compound I-3-5]
[10]
  efficacy against corn rust disease: 86%

## CC(=C1SC(Nc2ccc(C(F)(F)F)cc2)=NC1=O)C1=C(c2ccc(Cl)cc2)C2(CCCCC2)OC1=O [Compound I-6-9]
[11]
  efficacy against wheat powdery mildew: 88%

## CCCCNC1=NC(=O)C(=C(C)C2=C(c3ccc(Br)cc3)C3(CCCCC3)OC2=O)S1 [Compound I-7-5]
[12]
  efficacy against cucumber downy mildew: 95%

## CSc1ccc(C2=C(C(C)=C3SC(Nc4ccccc4-c4ccc(Cl)cc4)=NC3=O)C(=O)OC23CCCCC3)cc1 [Compound I-10-17]
[10]
  efficacy against corn rust disease: 89%

## CC(=C1SC(Nc2ccc(F)cc2-c2ccc(Cl)c(Cl)c2)=NC1=O)C1=C(c2ccc(C(F)(F)F)cc2)C2(CCCCC2)OC1=O [Compound I-12-15]
[12]
  efficacy against cucumber downy mildew: 93%

## CC(=C1SC(NCC(C)C)=NC1=O)C1=C(c2cccc(Cl)c2)C2(CCCCC2)OC1=O [Compound I-14-6]
[11]
  efficacy against wheat powdery mildew: 85%

## CC(=C1SC(Nc2ccccc2)=NC1=O)C1=C(c2cccc(C(F)(F)F)c2)C2(CCCCC2)OC1=O [Compound I-16-7]
[11]
  efficacy against wheat powdery mildew: 81%

## CCOC(=O)C(C#N)=C(N)c1ccccc1 [Phenamacril]
[1]
  inhibition rate, Pathogenic fungi of rice sheath blight: 11.5 ± 1.4%
[2]
  inhibition rate, Pathogenic fungi of pepper phytophthora disease: 8.1 ± 2.1%
[3]
  inhibition rate, Pathogenic fungi of wheat scab: 100.0 ± 0.0%
[4]
  inhibition rate, Pathogenic fungi of rice bakanae disease: 100.0 ± 0.0%
[5]
  inhibition rate, Pathogenic fungi of rape sclerotinia: 23.0 ± 1.3%
[6]
  inhibition rate, Pathogenic fungi of tomato gray mold: 13.1 ± 0.3%
[7]
  EC50: 0.078 mg/L (≈ 0.361 µM)
  EC90: 5.60 mg/L (≈ 25.9 µM)
[8]
  EC50: 0.071 mg/L (≈ 0.328 µM)
  EC90: 0.54 mg/L (≈ 2.5 µM)

## Cc1nc(C(F)(F)F)c(C(=O)Nc2c(Br)cc(OC(F)(F)F)cc2Br)s1 [Thifluzamide]
[1]
  inhibition at 50 µg/mL: 90.1 ± 4.5%
[2]
  inhibition at 50 µg/mL: 15.1 ± 2.8%
[3]
  inhibition at 50 µg/mL: 13.4 ± 6.3%
[4]
  inhibition at 50 µg/mL: 5.8 ± 1.4%
[5]
  inhibition at 50 µg/mL: 83 ± 1.2%
[6]
  inhibition at 50 µg/mL: 28.2 ± 1.2%
[9]; Sclerotinia
  EC50: 1.53 mg/L (≈ 2.9 µM)
  EC90: 16.3 mg/L (≈ 30.8 µM)
